Results as given in US12391671B2, “Allosteric EGFR inhibitors and methods of use thereof” (Dana-Farber Cancer Institute, Inc., priority 2019, dated 2025).
Structures can show the parent of a compound that is named as a salt. Where two headings read alike, the source gives them in different places.

Key:
EGFR L858R/T790M = EGFR L858R/T790M (Homo sapiens (Human), UniProt P00533, L858R/T790M); experiment: HTRF-based EGFR biochemical assay (L858R/T790M); conditions: 100 μM ATP, enzyme 0.02 nM
Summary of the method: (§1)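 Mutant EGFR (L858R 0.1 nM, L858R/T790M 0.02 nM) preincubated 30 min with compounds at room temperature in HEPES pH 7.0 buffer with Mg2+/Mn2+, then reacted 20 min with 1 μM biotinylated tyrosine kinase peptide and 100 μM ATP. Phosphorylation read by HTRF (Eu-cryptate anti-phosphotyrosine/streptavidin-XL665, 665/620 nm) after EDTA quench.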

[1] = test system: EGFR mutant L858R/T790M Ba/F3 cells; experiment: Ba/F3 cell proliferation model (Cell Titer Glo), EGFR L858R/T790M; assay type: cell-based, murine; conditions: 72 hours
Summary of the method: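 Retrovirally transduced Ba/F3 cells exposed 72 h to compound alone or with 1 μg/mL cetuximab, triplicate points, repeated at least three times. Viability by Cell Titer Glo luminescence (ATP); curves fitted by non-linear sigmoidal dose-response regression.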

EGFR L858R = EGFR L858R (Homo sapiens (Human), UniProt P00533, L858R); experiment: HTRF-based EGFR biochemical assay (L858R); conditions: 100 μM ATP, enzyme 0.1 nM
Summary of the method: as §1

[2] = test system: EGFR mutant L858R Ba/F3 cells; experiment: Ba/F3 cell proliferation model (Cell Titer Glo), EGFR L858R; assay type: cell-based, murine; conditions: 72 hours
From the text: Example 26: Ba/F3 Cell Proliferation Models
The EGFR mutant L858R and L858R/T790M Ba/F3 cells have been previously described (Zhou, W., et al. Nature 462, 2009, 1070-1074). All cell lines were maintained in RPM 1640 (Cellgro; Mediatech Inc., Herndon. CA) supplemented with 10% FBS, 100 units/mL penicillin, 100 units/mL streptomycin. The EGFR I941R mutation was introduced via site directed mutagenesis using the Quick Change Site-Directed Mutagenesis kit (Stratagene; La Jolla, CA) according to the manufacturer's instructions. All constructs were confirmed by DNA sequencing. The constructs were shuttled into the retroviral vector JP1540 using the Cre-recombination system (Agilent Technologies, Santa Clara, CA). Ba/F3 cells were then infected with retrovirus per standard protocols, as described previously (Zhou, et al, Nature 2009). Stable clones were obtained by selection in puromycin (2 μg/ml).
Growth and inhibition of growth was assessed by the Cell Titer Glo® assay (Promega, Madison, WI) and was performed according to the manufacturer's instructions. The Cell Titer Glo® assay is a luminescence-based method used to determine the number of viable cells based on quantitation of the ATP present, which is directly proportional to the amount of metabolically active cells present. Ba/F3 cells of different EGFR genotypes were exposed to compounds as a single agent or in combination with 1 μg/mL cetuximab for 72 hours and the number of cells used per experiment was determined empirically as has been previously established (Zhou, et al., Nature 2009). All experimental points were set up in triplicates in 384-well plates and all experiments were repeated at least three times. […] The curves were fitted using a non-linear regression model with a sigmoidal dose response.

[3] = Mus musculus, BaF3, single agent, read-out: Cell IC50 BaF3 EGFR L858R/T790M
[4] = in combination with 1 μg/mL cetuximab, read-out: Cell IC50 BaF3 EGFR L858R/T790M (+cetux.)
[5] = Mus musculus, BaF3, single agent, read-out: Cell IC50 BaF3 EGFR L858R
[6] = in combination with 1 μg/mL cetuximab, read-out: Cell IC50 BaF3 EGFR L858R (+cetux.)

Sequence of EGFR L858R (P00533 25-1210 L858R): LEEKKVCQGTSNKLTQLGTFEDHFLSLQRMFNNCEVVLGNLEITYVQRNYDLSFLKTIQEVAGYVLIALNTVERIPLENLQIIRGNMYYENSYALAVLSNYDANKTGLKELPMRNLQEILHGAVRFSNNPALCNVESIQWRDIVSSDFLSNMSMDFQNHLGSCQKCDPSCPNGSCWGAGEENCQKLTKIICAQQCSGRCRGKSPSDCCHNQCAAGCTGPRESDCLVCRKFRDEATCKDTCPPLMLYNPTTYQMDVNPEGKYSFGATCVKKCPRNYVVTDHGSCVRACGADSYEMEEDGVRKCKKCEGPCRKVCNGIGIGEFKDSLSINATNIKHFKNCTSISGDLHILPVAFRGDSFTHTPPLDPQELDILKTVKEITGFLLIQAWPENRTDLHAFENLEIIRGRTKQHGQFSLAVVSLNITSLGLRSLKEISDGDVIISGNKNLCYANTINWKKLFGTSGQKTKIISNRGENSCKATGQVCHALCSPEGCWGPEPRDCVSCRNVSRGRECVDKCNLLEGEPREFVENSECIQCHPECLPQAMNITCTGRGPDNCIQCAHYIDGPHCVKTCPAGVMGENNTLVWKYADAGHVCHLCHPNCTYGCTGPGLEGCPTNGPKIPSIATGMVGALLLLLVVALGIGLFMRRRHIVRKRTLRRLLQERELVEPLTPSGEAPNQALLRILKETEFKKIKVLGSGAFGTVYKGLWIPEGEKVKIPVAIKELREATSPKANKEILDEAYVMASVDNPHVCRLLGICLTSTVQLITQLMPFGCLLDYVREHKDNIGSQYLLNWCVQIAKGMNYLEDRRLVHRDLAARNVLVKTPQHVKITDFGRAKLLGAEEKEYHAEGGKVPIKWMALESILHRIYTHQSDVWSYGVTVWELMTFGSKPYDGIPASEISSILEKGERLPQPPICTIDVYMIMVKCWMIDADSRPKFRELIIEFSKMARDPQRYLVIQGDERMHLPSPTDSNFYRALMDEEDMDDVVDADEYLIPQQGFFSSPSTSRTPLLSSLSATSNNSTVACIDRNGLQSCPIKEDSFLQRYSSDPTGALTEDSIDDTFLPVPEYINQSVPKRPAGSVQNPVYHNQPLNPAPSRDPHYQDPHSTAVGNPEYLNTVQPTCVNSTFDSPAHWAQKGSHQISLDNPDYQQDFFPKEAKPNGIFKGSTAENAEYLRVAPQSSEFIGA
Sequence of EGFR L858R/T790M (P00533 25-1210 T790M/L858R): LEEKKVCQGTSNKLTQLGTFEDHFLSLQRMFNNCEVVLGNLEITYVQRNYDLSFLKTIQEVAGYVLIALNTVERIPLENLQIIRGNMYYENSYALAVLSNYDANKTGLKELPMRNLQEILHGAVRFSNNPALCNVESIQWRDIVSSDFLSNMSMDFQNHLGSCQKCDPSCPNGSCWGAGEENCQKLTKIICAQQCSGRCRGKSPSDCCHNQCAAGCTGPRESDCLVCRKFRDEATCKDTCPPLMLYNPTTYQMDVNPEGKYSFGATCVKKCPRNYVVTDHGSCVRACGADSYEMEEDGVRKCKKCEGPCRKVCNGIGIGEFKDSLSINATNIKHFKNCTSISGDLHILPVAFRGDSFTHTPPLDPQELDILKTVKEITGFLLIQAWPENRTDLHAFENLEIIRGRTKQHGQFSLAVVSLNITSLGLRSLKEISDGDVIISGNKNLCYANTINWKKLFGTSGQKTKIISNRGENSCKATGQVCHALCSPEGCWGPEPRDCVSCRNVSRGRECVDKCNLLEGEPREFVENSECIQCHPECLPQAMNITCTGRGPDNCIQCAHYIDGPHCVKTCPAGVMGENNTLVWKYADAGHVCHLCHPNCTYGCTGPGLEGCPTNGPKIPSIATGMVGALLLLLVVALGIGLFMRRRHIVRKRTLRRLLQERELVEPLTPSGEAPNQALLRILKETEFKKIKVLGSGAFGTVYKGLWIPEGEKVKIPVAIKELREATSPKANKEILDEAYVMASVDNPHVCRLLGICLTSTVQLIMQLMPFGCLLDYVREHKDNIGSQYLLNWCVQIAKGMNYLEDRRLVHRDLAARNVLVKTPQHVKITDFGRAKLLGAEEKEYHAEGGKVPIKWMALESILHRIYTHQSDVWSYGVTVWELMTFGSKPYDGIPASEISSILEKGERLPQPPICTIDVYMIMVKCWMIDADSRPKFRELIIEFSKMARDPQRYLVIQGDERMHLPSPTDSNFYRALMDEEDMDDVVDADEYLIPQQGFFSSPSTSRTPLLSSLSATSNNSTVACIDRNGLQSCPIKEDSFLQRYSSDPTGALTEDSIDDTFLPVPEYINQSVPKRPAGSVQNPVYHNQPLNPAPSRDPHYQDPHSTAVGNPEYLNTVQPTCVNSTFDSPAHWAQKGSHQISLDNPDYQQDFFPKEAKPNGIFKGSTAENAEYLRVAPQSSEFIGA

Row | SMILES | IC50 (EGFR L858R/T790M) [nM] | IC50 [1, 3] [nM] | IC50 [1, 4] [nM] | IC50 (EGFR L858R) [nM] | IC50 [2, 5] [nM] | IC50 [2, 6] [nM] | IC50 ([1]; single agent, read-out: Cell IC50 BaF3 EGFR L858R/T790M) [nM] | IC50 ([2]; single agent, read-out: Cell IC50 BaF3 EGFR L858R) [nM]
1 | COc1c(-c2ccc(C3CCN(C)CC3)cc2)ccc2ncn(C(c3nc4ccccc4[nH]3)c3cc(F)ccc3O)c(=O)c12 (stereo not shown) [Compound 077, 3-[1H-benzimidazol-2-yl-(5-fluoro-2-hydroxy-phenyl)methyl]-5-methoxy-6-[4-(1-methyl-4-piperidyl)phenyl]quinazolin-4-one;dihydrochloride] | 2 | 450 | 50 | 2 | 910 |  |  | 
2 | CN1CCC(c2ccc(-c3ccc4c(c3)C(=O)N(C(c3nc5ccccc5[nH]3)c3cc(F)ccc3O)C4)cc2)CC1 (stereo not shown) [Compound 024, 2-[1H-Benzimidazol-2-yl-(5-fluoro-2-hydroxy-phenyl)methyl]-6-[4-(1-methyl-4-piperidyl)phenyl]isoindolin-1-one; hydrochloride] | 0.5 | 440 | 7 | 2 | 1180 | 60 |  | 
3 | Cc1c[nH]c(C(c2cccc(F)c2)N2Cc3ccc(-c4ccc(C5CCN(C)CC5)cc4)cc3C2=O)n1 (stereo not shown) [Compound 086, 2-[(3-fluorophenyl)-(4-methyl-1H-imidazol-2-yl)methyl]-6-[4-(1-methyl-4-piperidyl)phenyl]isoindolin-1-one] | 25 | 3220 |  | > 100 | 3640 |  |  | 
4 | CN1CCC(c2ccc(-c3ccc4ncn(C(c5nc6ccccc6[nH]5)c5cc(F)ccc5O)c(=O)c4c3)cc2)CC1 (stereo not shown) [Compound 006, 3-[1H-Benzimidazol-2-yl-(5-fluoro-2-hydroxy-phenyl)methyl]-6-[4-(1-methyl-4-piperidyl)-phenyl]quinazolin-4-one;hydrochloride] | 0.5 | 280 | 5 | 2 | 1100 | 60 |  | 
5 | CN1CCC(c2ccc(-c3cc(F)c4cn(C(c5nc6ccccc6[nH]5)c5cc(F)ccc5O)nc4c3)cc2)CC1 (stereo not shown) [Compound 119, 2-((1H-Benzo[d]imidazol-2-yl)(4-fluoro-6-(4-(1-methylpiperidin-4-yl)phenyl)-2H-indazol-2-yl)methyl)-4-fluorophenol; trifluoroacetate] | 3 | 420 |  | 11 | 780 |  |  | 
6 | CN1CCC(c2ccc(-c3ccc4ncn(C(c5nc6ccccc6[nH]5)c5cc(F)ccc5O)c(=O)c4c3Cl)cc2)CC1 (stereo not shown) [Compound 075, 3-[1H-benzimidazol-2-yl-(5-fluoro-2-hydroxy-phenyl)methyl]-5-chloro-6-[4-(1-methyl-4-piperidy)phenyl]-quinazolin-4-one; dihydrochloride] | 0.7 | 90 | 20 | 1 | 100 |  |  | 
7 | CN1CCC(c2ccc(-c3ccc4c(=O)n(C(c5nc6ccccc6[nH]5)c5cc(F)ccc5O)ccc4c3)cc2)CC1 (racemic) [Compound 069, Rac-2-(1H-1,3-benzodiazol-2-yl)(5-fluoro-2-hydroxyphenyl)methyl]-6-[4-(1-methylpiperidin-4-yl)phenyl]-1,2-dihydroisoquinolin-1-one] | 5 | 520 | 10 | 9 | 360 |  |  | 
8 | CN1CCC(c2ccc(-c3ccc4c(c3)C(=O)N([C@@H](c3nc5ccccc5[nH]3)c3cc(F)ccc3O)C4)cc2)CC1 [Compound 022, 2-[(R)-1H-benzimidazol-2-yl-(5-fluoro-2-hydroxy-phenyl)methyl]-6-[4-(1-methyl-4-piperidyl)phenyl]isoindolin-1-one] | 0.1 |  | 5 | 0.3 |  | 40 | 380 | 640
9 | CN1CCC2(c3ccc(-c4ccc5c(c4)C(=O)N(C(c4nc6ccccc6[nH]4)c4cc(F)ccc4O)C5)cc3)CC2C1 (stereo not shown) [Compound 079, 2-[1H-benzimidazol-2-yl-(5-fluoro-2-hydroxy-phenyl)methyl]-6-[4-(3-methyl-3-azabicyclo[4.1.0]heptan-6-yl)phenyl]isoindolin-1-one; dihydrochloride] | 0.8 | 190 | 7 | 3 | 830 |  |  | 
10 | Cc1c[nH]c(C(c2cc(F)ccc2O)N2Cc3ccc(-c4ccc(C5CCN(C)CC5)cc4)cc3C2=O)n1 (stereo not shown) [Compound 085, 2-[(5-Fluoro-2-hydroxy-phenyl)-(4-methyl-1H-imidazol-2-yl)methyl]-6-[4-(1-methyl-4-piperidyl)phenyl]isoindolin-1-one] | 28 | 1290 | 50 | 13 | 780 |  |  | 
11 | CN1CCC(c2ccc(-c3ccc4ncn(C(c5nc6ccccc6[nH]5)c5cc(F)ccc5O)c(=O)c4c3C(F)(F)F)cc2)CC1 (stereo not shown) [Compound 076, 3-[1H-benzimidazol-2-yl-(5-fluoro-2-hydroxy-phenyl)methyl]-6-[4-(1-methyl-4-piperidyl)phenyl]-5-(trifluoromethyl)quinazolin-4-one; dihydrochloride] | 2 | 140 | 30 | 2 | 90 |  |  | 
12 | Cc1nc(C(c2cc(F)ccc2O)N2Cc3ccc(-c4ccc(C5CCN(C)CC5)cc4)cc3C2=O)[nH]c1C (stereo not shown) [Compound 087, 2-[(4,5-dimethyl-1H-imidazol-2-yl)-(5-fluoro-2-hydroxy-phenyl)methyl]-6-[4-(1-methyl-4-piperidyl)phenyl]isoindolin-1-one] | 25 | 1320 |  | > 100 | 1370 |  |  | 
13 | O=C1c2cc(-c3ccc(OC4CNC4)cc3)ccc2CN1C(c1nc2ccccc2[nH]1)c1cc(F)ccc1O (stereo not shown) [Compound 091, 6-[4-(azetidin-3-yloxy)phenyl]-2-[1H-benzimidazol-2-yl-(5-fluoro-2-hydroxy-phenyl)methyl]isoindolin-1-one; dihydrochloride] | 6 | 1050 | 120 | 12 | 1780 |  |  | 
14 | CN1CCC(c2ccc(-c3cc4nn(C(c5nc6ccccc6[nH]5)c5cc(F)ccc5O)cc4cc3F)cc2)CC1 (stereo not shown) [Compound 118, 2-((1H-Benzo[d]imidazol-2-yl)(5-fluoro-6-(4-(1-methylpiperidin-4-yl)phenyl)-2H-indazol-2-yl)methyl)-4-fluorophenol] | 6 | 1310 |  | 16 | 4080 |  |  | 
15 | CN1CCC(c2ccc(-c3ccc4ncn(C(c5nc6ccccc6[nH]5)c5cc(F)ccc5O)c(=O)c4c3F)cc2)CC1 (stereo not shown) [Compound 004, 3-((1H-Benzo[d]imidazol-2-yl)(5-fluoro-2-hydroxyphenyl)methyl)-5-fluoro-6-(4-(1-methylpiperidin-4-yl)phenyl)quinazolin-4(3H)-one 2,2,2-trifluoroacetate] | 0.4 | 90 | 10 | 1 | 240 | 30 |  | 
16 | CN1CCC(c2ccc(-c3cc(F)c4c(=O)n(C(c5ccccc5)c5nc6ccccc6[nH]5)ccc4c3)cc2)CC1 (stereo not shown) [Compound 064, 2-[1H-benzimidazol-2-yl(phenyl)methyl]-8-fluoro-6-[4-(1-methyl-4-piperidyl)phenyl]-isoquinolin-1-one; dihydrochloride] | 20 | 220 | 20 | 31 | 670 |  |  | 
17 | CN1CCC(c2ccc(-c3ccc4c(c3F)C(=O)N(C(c3nc5ccccc5[nH]3)c3cc(F)ccc3O)C4)cc2F)CC1 (stereo not shown) [Compound 080, 2-[1H-benzimidazol-2-yl-(5-fluoro-2-hydroxy-phenyl)methyl]-7-fluoro-6-[3-fluoro-4-(1-methyl-4-piperidyl)phenyl]isoindolin-1-one; dihydrochloride] | 0.6 | 210 | 10 | 3 | 500 |  |  | 
